Measurements: patent publication US11465972B2, “Inhibitors of oxidized low-density lipoprotein receptor 1 and methods of use thereof” (United States Government as represented by the Department …, priority 2015, dated 2022)
Several values for one entry are separate records, joined by “and”; a condition that tells them apart may be missing. Equal entries are not always repeated.

Columns and labels:
human LOX-1 = human LOX-1 (Homo sapiens, UniProt P78380); test: Dil-ox-LDL uptake in CHO cells overexpressing human LOX-1; type: cell-based; conditions: 0, 20, 200, 2000 nM, read-out: IC50, inhibition of Dil-ox-LDL uptake
Method: FIG. 3A, FIG. 3B, FIG. 3C and FIG. 3D depict the inhibitory effect of the lead compounds on Dil-ox-LDL uptake by HUVECs and CHO cells (measured by flow cytometry) and the effect of the lead compounds on ox-LDL-induced LOX-1 mRNA and protein expression. (FIG. 3A) (Upper Panel) Flow cytometry measurements using HUVECs in the presence of the five lead compounds (Mol-1-Mol-5), each a at 200 nM concentration. (Lower Panel) The percentage of internalized ox-LDL. Graphs show data as mean (±SD); n=4. *P<0.01 or <0.05 vs. control. (FIG. 3B) IC50 value for Mol-5. IC50 value (in nM) is based on inhibition of Dil-ox-LDL uptake in CHO cells overexpressing human LOX-1. Graphs show data as mean (±SD); n=5. *P<0.01 or <0.05 vs. control. (FIG. 3C) Western blotting assay showing LOX-1 protein expression in HUVECs following incubation with 200 nM Mol-1 to Mol-5 for 30 min, and subsequently exposure to 5 μg/mL ox-LDL for 6 hours. […]
For further characterization, human endothelial cells and fluorescently-labeled Dil-ox-LDL were used for measuring initiation of atherogenic process based on interaction of vascular wall with ox-LDL. Ox-LDL uptake by human umbilical vein endothelial cells (HUVECs) was measured after exposure to 200 nM of each compound using flow cytometry. […] The dose response to modulation of ox-LDL uptake by Mol-5 (0, 20, 200 and 2000 nM) was also measured in CHO cells overexpressing human LOX-1. […]

[1] = Liver microsomal stability, mouse; type: in vitro ADME; conditions: mouse liver microsomes
Method: (§1) Metabolic stability or clearance is recognized as one of the main determinants of drug concentration in blood. The metabolic stability of Mol-5 was tested using liver microsomes form mice and humans to obtain stability ranking and intrinsic clearance.

[2] = Liver microsomal stability, human; type: in vitro ADME; conditions: human liver microsomes
Method: as §1

ECs = test: Second dose response of ox-LDL uptake by ECs (lower concentrations); type: cell-based; conditions: second dose response curve, estimated
Method: FIG. 6A depicts the IC50 for Mol-5. The x-axis represents Mol-5 concentration (nM) and the y-axis represents ox-LDL uptake by ECs. FIG. 6B depicts the ox-LDL uptake with Mol-5 inhibition.
For further characterization, human endothelial cells and fluorescently-labeled Dil-ox-LDL were used for measuring initiation of atherogenic process based on interaction of vascular wall with ox-LDL. Ox-LDL uptake by human umbilical vein endothelial cells (HUVECs) was measured after exposure to 200 nM of each compound using flow cytometry. […] The dose response to modulation of ox-LDL uptake by Mol-5 (0, 20, 200 and 2000 nM) was also measured in CHO cells overexpressing human LOX-1. […] A second dose response curve was conducted to narrow in on the effect of lower concentrations of Mol-5 on ox-LDL uptake (FIG. 6A). Using this information the EC50 was estimated to be […] (FIG. 6B).

IC50 (human LOX-1): ~0.2 µM and 0.2 µM | half-life [1]: 1.7 ± 0.1 min | metabolic stability (in words) [1]: low stability | microsomal CLint [1]: 836 ± 40.8 µL/min/mg | half-life [2]: 55.3 ± 2.2 min | metabolic stability (in words) [2]: reasonable stability | microsomal CLint [2]: 25.1 ± 1 µL/min/mg | EC50 (ECs): 0.064 µM
Compound: Cc1cc(C)n(CC(O)COc2ccccc2)n1 (centres unmarked) [Mol-5, 1-(3,5-dimethyl-1H-pyrazol-1-yl)-3-phenoxypropan-2-ol]
